Reference: patent US20260077055A1, “COMPOSITIONS OF POLYPLEXES AND SAPONINS” (SAPREME TECHNOLOGIES B.V., priority 2022, published 2026)

Test system: EGFR+ A431 cells
Assay: Cell viability (MTS) after polyplex transfection of A431 cells
Format: cell-based
Method: Spectrophotometry: Concentrations were determined using either a Thermo Nanodrop 2000 spectrometer or Perkin Elmer Lambda 365 Spectrophotometer. DLS measurements: DLS measurements were performed on a Malvern Nano ZS (Malvern Instruments, U.K.), operating at 633 nm with a 173° scattering angle, at 25 or 37° C. DLS mean diameters were obtained from the intensity particle size distribution provided by Malvern Zetasizer Software. DLS histograms were obtained from the intensity particle size distributions. Zeta-potential: The zeta-potential values of the polyplexes were obtained by laser doppler anemometry (LDA), measuring the mean electrophoretic mobility (Malvern Zetasizer Nano ZS, Malvern Instruments, U.K.). Measurements were performed in 10 mM HEPES pH 7.1, 150 mM NaCl. TEM measurements: TEM measurements were performed on a JEOL JEM-1011 operated at 100 kV electron microscope, equipped with a camera S5 MegaView G2. A drop of a solution of polyplexes (0.1 mg/mL) was settled on a PELCO® TEM carbon type-B film copper grid and allowed to dry at room temperature for 1 h. Infrared Spectroscopy: FT-IR spectra were recorded on a Bruker Vertex 70v, equipped with a RockSolid interferometer, after preparing the samples (1-2 mg) as KBr pellets. Spectra were processed using OPUS 7.8 software (Bruker). NMR Spectroscopy: 1H NMR spectra were recorded on a 11.7 T Bruker DRX-500 spectrometer. Chemical shifts are reported in ppm (o units) downfield from the HOD residual solvent peak (CD3OD). Experiments were recorded acquiring 64-512 scans, with a pre-scan delay (d1) of 12 s, and an acquisition time (aq) of 4 s at 300 K. 13C NMR spectrum was recorder on a 9.39 T Varian Innova 400 spectrometer. MestReNova 14.2 software (Mestrelab Research) was used for spectra processing. Cell culture conditions and treatments: HEK293FT, A431, A2058, Neuro2A, Hepa1-6 and MDA-MB 468 were maintained in 10% FBS-supplemented DMEM medium (PAN-Biotech GmbH, or Lonza Group, Basel, Switzerland)+Pen/Strep at 37° C. with 5% CO2. […] SO1861-EMCH was conjugated into/onto these polyplexes or co-administrated at 966 or 4000 nM to the different cell lines in vitro (as indicated). For this, cells were seeded in a 96 well plate at 5.000-10.000 c/w in 100 μL/well and incubated overnight at 37° C. Before treatment, the mAb-SO1861 and polyplexes were diluted separately in DPBS (PAN-Biotech GmbH) to 10× the required final concentration. The cells received 80 μL/well fresh media, followed by 20 μL/well polyplex solution and 20 μL/well saponin solution. In particular, before K16-polyplex treatments, K16-polyplexes were formulated in 10 mM HEPES, incubated for 30 min at room temperature and then diluted with complete cell culture medium. The complete cell culture medium was exchanged against 100 μL transfection medium. For co-administration of SO1861-EMCH, the transfection medium was supplemented with 2 μg/mL (=966 nM) SO1861-EMCH. Control transfections were performed with Lipofectamine™ 3000 Transfection Reagent (Thermo Fisher Scientific) according to the manufacturer's instruction, using either […] or 100 ng plasmid and with a media change 4-5 hrs after transfection. […] After treatment, the cells were incubated for 72 hr at 37° C. before the cell viability was determined by a MTS-assay performed according to the manufacturer's instruction (CellTiter 96® AQueous One Solution Cell Proliferation Assay, Promega). […]

In the case of CC(=O)OC1C(C)OC(OC2C(C)OC(OC(=O)[C@]34CCC(C)(C)CC3C3=CCC5[C@@]6(C)CC[C@H](OC7OC(C(=O)O)C(O)C(OC8OCC(O)C(O)C8O)C7OC7OC(CO)C(O)C(O)C7O)[C@@](C)(/C=N/NC(=O)CCCCCN7C(=O)C=CC7=O)C6CC[C@@]5(C)[C@]3(C)C[C@H]4O)C(OC3OC(C)C(OC4OCC(O)C(OC5OC(CO)C(O)C(O)C5O)C4O)C(O)C3O)C2O)C(O)C1OC1OCC(O)C(O)C1O (some centres unmarked) [SO1861-EMCH], the “cell killing activity / saporin gene delivery, K16C npSaporin polyplexes” value (K16C alone up to about 5000 μM of plasmids (printed), SO1861-EMCH = free, co-administered with K16C-polyplexes) is reported as “enhanced cell killing activity” and the “cytoplasmic delivery of npSaporin / cell killing” value (co-administered with PAMAM G5(PEG-N3)6.2 npSaporin polyplexes, 73 nM Cetuximab-SO1861 or 4 μM SO1861-EMCH, 72 h) is reported as “strongly enhanced the cytoplasmic delivery of npSaporin”.
